Measured values published in patent publication US10287253B2, “Substituted pyrimidines containing acidic groups as TLR7 modulators” (Apros Therapeutics, Inc., priority 2016, dated 2019).

What was measured:
human TLR7 (hTLR7) = human TLR7 (hTLR7) (Homo sapiens (Human), UniProt Q9NYK1); experiment: HEK TLR7 assay (HEK-Blue hTLR7 cells, NF-kB/AP-1 SEAP reporter); assay type: cell-based; conditions: HEK-Blue hTLR7 cells, 16 h incubation, SEAP read at 620-655 nm
Source text: HEK-Blue™ TLR7 cells were purchased from Invivogen (San Diego, Calif.). The following description was taken from the product information sheet.
“HEK-Blue™ hTLR7 cells are designed for studying the stimulation of human TLR7 (hTLR7) by monitoring the activation of NF-kB. HEK-Blue™ hTLR7 cells were obtained by co-transfection of the hTLR7 gene and an optimized secreted embryonic alkaline phosphatase (SEAP) reporter gene into HEK293 cells. The SEAP reporter gene is placed under the control of the IFN-b minimal promoter fused to five NF-kB and AP-1-binding sites. Stimulation with a TLR7 ligand activates NF-kB and AP-1 which induce the production of SEAP, which is detected by the HEK-Blue™ Detection cell culture medium.”
A typical assay protocol involved the following steps: • 1. Cells were cultured according to the product information sheet. • 2. 10 mM compound stock in DMSO were first diluted to 3 mM and then 3-fold serially diluted using DMSO to afford a 10-pt dilution. • 3. 3 μl of the diluted DMSO were added to 57 μl HEK-Blue™ Detection media for a further 20-fold dilution. • 4. 10 μl of the diluted compound in assay media were added into 40 μl cell culture (in HEK-Blue™ Detection media) in 384-well plate. Final cell concentration=8,000 cells per well. • 5. The plates were incubated at 37° C. in 5% CO2 for 16 h. SEAP was determined using a spectrophotometer at 620-655 nm.

[1] = Pharmacokinetics experiments: mouse liver-to-serum concentration (L:S); assay type: in vivo; conditions: BALB/c mice, 10 mg/kg p.o., 5 hour post dose
Experimental: BALB/c mice were dosed p.o. with 10 mg/kg compound formulated in 0.5% carboxy methycellulose+0.5% Tween-80 suspension. Mice were bled retro-orbitally at different time points post dose. Blood was processed into serum by centrifugation followed by protein precipitation, reverse-phase gradient elution and MRM detection via ESI+mass spectrometry to determine compound concentration. Animals were sacrificed after the final blood collection (5 hour), liver removed and flash frozen in liquid nitrogen for tissue PK analyses. The liver-to-serum concentration (L:S) at 5 hour post dose is one parameter for identifying compounds with potential enrichment in liver.
Mouse liver-to-serum concentration (L:S) table below provides results.

Chain of human TLR7 (hTLR7) (Q9NYK1 27-1049): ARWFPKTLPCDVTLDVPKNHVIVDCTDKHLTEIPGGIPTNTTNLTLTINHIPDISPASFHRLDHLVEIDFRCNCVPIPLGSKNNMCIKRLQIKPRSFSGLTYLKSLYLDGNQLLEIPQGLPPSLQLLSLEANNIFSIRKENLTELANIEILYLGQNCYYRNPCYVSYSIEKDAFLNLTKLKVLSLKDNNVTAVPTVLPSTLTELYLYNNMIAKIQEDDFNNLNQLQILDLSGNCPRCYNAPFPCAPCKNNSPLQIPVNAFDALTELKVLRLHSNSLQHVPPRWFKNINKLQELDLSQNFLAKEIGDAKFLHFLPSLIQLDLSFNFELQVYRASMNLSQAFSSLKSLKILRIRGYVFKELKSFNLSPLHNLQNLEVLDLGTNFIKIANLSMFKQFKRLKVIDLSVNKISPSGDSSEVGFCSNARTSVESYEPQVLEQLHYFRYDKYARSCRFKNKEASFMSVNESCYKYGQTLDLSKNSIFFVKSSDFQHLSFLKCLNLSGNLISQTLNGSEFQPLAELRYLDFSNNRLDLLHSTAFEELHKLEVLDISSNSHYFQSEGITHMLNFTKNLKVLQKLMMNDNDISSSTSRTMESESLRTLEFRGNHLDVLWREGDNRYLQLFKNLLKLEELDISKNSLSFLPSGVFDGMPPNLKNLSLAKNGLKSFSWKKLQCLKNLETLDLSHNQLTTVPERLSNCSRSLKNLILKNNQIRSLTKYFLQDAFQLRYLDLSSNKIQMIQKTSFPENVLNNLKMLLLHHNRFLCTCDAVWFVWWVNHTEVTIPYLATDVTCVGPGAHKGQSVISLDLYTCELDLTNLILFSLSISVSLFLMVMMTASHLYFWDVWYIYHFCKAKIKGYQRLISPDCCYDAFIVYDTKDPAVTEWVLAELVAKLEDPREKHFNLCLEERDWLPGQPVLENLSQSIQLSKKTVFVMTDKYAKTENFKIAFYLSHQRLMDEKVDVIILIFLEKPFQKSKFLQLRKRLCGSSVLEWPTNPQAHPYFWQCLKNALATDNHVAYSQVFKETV

| Compound | EC50 (human TLR7 (hTLR7)) [µM] | L:S at 5 hr (liver-to-serum concentration) [1] |
| --- | --- | --- |
| CCCCNc1nc(N)nc(C)c1Cc1ccc(CCC(=O)O)cc1OC [Compound 1, 3-(4-((2-amino-4-(butylamino)-6-methylpyrimidin-5-yl)methyl)-3-methoxyphenyl)propanoic acid] | 1 to 10 | – |
| CCCCNc1nc(N)nc(C)c1Cc1ccc(Cc2nn[nH]n2)cc1OC [Compound 2, 5-(4-((2H-tetrazol-5-yl)methyl)-2-methoxybenzyl)-N4-butyl-6-methylpyrimidine-2,4-diamine] | 1 to 10 | – |
| CCCCNc1nc(N)nc(C)c1Cc1cc(CCC(=O)O)ccc1OC [Compound 4, 3-(3-((2-amino-4-(butylamino)-6-methylpyrimidin-5-yl)methyl)-4-methoxyphenyl)propanoic acid] | 1 to 10 | – |
| CCCCNc1nc(N)nc(C)c1Cc1cc(Cc2nnn(CC(=O)O)n2)ccc1OC [Compound 5, 2-(5-(3-((2-amino-4-(butylamino)-6-methylpyrimidin-5-yl)methyl)-4-methoxybenzyl)-2H-tetrazol-2-yl)acetic acid] | 1 to 10 | – |
| CCCCNc1nc(N)nc(C)c1Cc1cc(Cc2nnnn2CC(=O)O)ccc1OC [Compound 6, 2-(5-(3-((2-amino-4-(butylamino)-6-methylpyrimidin-5-yl)methyl)-4-methoxybenzyl)-1H-tetrazol-1-yl)acetic acid] | 1 to 10 | – |
| CCCCNc1nc(N)nc(C)c1Cc1cc(CP(=O)(O)O)ccc1OC [Compound 7, (3-((2-amino-4-(butylamino)-6-methylpyrimidin-5-yl)methyl)-4-methoxybenzyl)phosphonic acid] | 1 to 10 | – |
| CCCCNc1nc(N)nc(C)c1Cc1cc(C2(C(=O)O)CC2)ccc1OC [Compound 14, 1-(3-((2-amino-4-(butylamino)-6-methylpyrimidin-5-yl)methyl)-4-methoxyphenyl)cyclopropane-1-carboxylic acid] | 1 to 10 | – |
| CCCCNc1nc(N)nc(CCC(=O)O)c1CCc1ccc(OC)cc1 [Compound 19, 3-(2-amino-6-(butylamino)-5-(4-methoxyphenethyl)pyrimidin-4-yl)pro-panoic acid] | 1 to 10 | – |
| CCCC[C@H](CC(=O)O)Nc1nc(N)nc(C)c1Cc1cc(Cc2nn[nH]n2)ccc1OC [Compound 20C, (R)-3-((5-(5-((2H-tetrazol-5-yl)methyl)-2-methoxybenzyl)-2-amino-6-methylpyrimidin-4-yl)amino)heptanoic acid] | 1 to 10 | – |
| CCCC[C@@H](CCO)Nc1nc(N)nc(CCC(=O)O)c1OC [Compound 21, (S)-3-(2-amino-6-((1-hydroxyheptan-3-yl)amino)-5-methoxypyrimidin-4-yl)propanoic acid] | 1 to 10 | – |
| CCCC[C@@H](CCSC)Nc1nc(N)nc(C)c1Cc1cc(Cc2nn[nH]n2)ccc1OC [Compound 22, (S)-5-(5-((2H-tetrazol-5-yl)methyl)-2-methoxybenzyl)-6-methyl-N^4-(1-(methylthio)heptan-3-yl)pyrimidine-2,4-diamine] | – | A (A = >100 represents high liver-enrichment) |
| CCCC[C@@H](CCS(C)(=O)=O)Nc1nc(N)nc(C)c1Cc1cc(Cc2nn[nH]n2)ccc1OC [Compound 23, (S)-5-(5-((2H-tetrazol-5-yl)methyl)-2-methoxybenzyl)-6-methyl-N^4-(1-(methylsulfonyl)heptan-3-yl)pyrimidine-2,4-diamine] | – | A (A = >100 represents high liver-enrichment) |
| CCCCNc1nc(N)nc(C)c1Cc1cc(C(=O)NCCCc2nn[nH]n2)ccc1OC [Compound 28, N-(3-(2H-tetrazol-5-yl)propyl)-3-((2-amino-4-(butylamino)-6-methyl-pyrimidin-5-yl)methyl)-4-methoxybenzamide] | 1 to 10 | – |
| CCCCNc1nc(N)nc(C)c1Sc1cc(Cc2nn[nH]n2)ccc1OC [Compound 31, 5-((5-((2H-tetrazol-5-yl)methyl)-2-methoxyphenyl)thio)-N^4-butyl-6-methylpyrimidine-2,4-diamine] | 1 to 10 | – |
| CCCC[C@@H](CCS(C)(=O)=O)Nc1nc(N)nc(CCC(=O)O)c1Cc1cc(CC(=O)O)ccc1OC [Compound 50, (S)-3-(2-amino-5-(5-(carboxymethyl)-2-methoxybenzyl)-6-((1-(methylsulfonyl)heptan-3-yl)amino)pyrimidin-4-yl)propanoic acid] | 0.1 to 1 | – |
| CCCC[C@@H](CCS(C)(=O)=O)Nc1nc(N)nc(C)c1Cc1cc(CC(=O)O)ccc1OC [Compound 51, (S)-2-(3-((2-amino-4-methyl-6-((1-(methylsulfonyl)heptan-3-yl)amino)pyrimidin-5-yl)methyl)-4-methoxyphenyl)acetic acid] | 0.1 to 1 | – |

The next lines start with results.

| EC50 (human TLR7 (hTLR7)) [µM] | Compound | L:S at 5 hr (liver-to-serum concentration) [1] |
| --- | --- | --- |
| 0.1 to 1 | CCCCNc1nc(N)nc(C)c1Cc1cc(Cc2nn[nH]n2)ccc1OC [Compound 3, 5-(5-((2H-tetrazol-5-yl)methyl)-2-methoxybenzyl)-N4-butyl-6-methylpyrimidine-2,4-diamine] | A (A = >100 represents high liver-enrichment) |
| 0.1 to 1 | CCC[C@@H](CO)Nc1nc(N)nc(C)c1Cc1cc(Cc2nn[nH]n2)ccc1OC [Compound 8, (S)-2-((5-(5-((2H-tetrazol-5-yl)methyl)-2-methoxybenzyl)-2-amino-6-methylpyrimidin-4-yl)amino)pentan-1-ol] | – |
| 0.1 to 1 | CCCCNc1nc(N)nc(C)c1Cc1cc(C(C)(C)C(=O)O)ccc1OC [Compound 9, 2-(3-((2-amino-4-(butylamino)-6-methylpyrimidin-5-yl)methyl)-4-methoxyphenyl)-2-methylpropanoic acid] | A (A = >100 represents high liver-enrichment) |
| 0.1 to 1 | CCCCNc1nc(N)nc(C)c1Cc1cc(C(C)(C)c2nn[nH]n2)ccc1OC [Compound 10, 5-(5-(2-(2H-tetrazol-5-yl)propan-2-yl)-2-methoxybenzyl)-N4-butyl-6-methylpyrimidine-2,4-diamine] | B (B = 10-100 represents moderate liver-enrichment) |
| 0.1 to 1 | CCCCNc1nc(N)nc(C)c1Cc1cc(C(=O)NCCS(=O)(=O)O)ccc1OC [Compound 16, 2-(3-((2-amino-4-(butylamino)-6-methylpyrimidin-5-yl)methyl)-4-methoxybenzamido)ethane-1-sulfonic acid] | – |
| 0.1 to 1 | CCCCNc1nc(N)nc(C)c1Cc1cc(C(=O)NCCCC(=O)O)ccc1OC [Compound 25, 4-(3-((2-amino-4-(butylamino)-6-methylpyrimidin-5-yl)methyl)-4-methoxybenzamido)butanoic acid] | – |
| 0.1 to 1 | CCCCCNc1nc(N)nc(C)c1Cc1cc(Cc2nn[nH]n2)ccc1OC [Compound 26, 5-(5-((2H-tetrazol-5-yl)methyl)-2-methoxybenzyl)-6-methyl-M-pentylpyrimidine-2,4-diamine] | – |
| 0.1 to 1 | CCCC[C@@H](CCO)Nc1nc(N)nc(CCC(=O)O)c1Cc1ccccc1OC [Compound 27, (S)-3-(2-amino-6-((1-hydroxyheptan-3-yl)amino)-5-(2-methoxybenzyl)-pyrimidin-4-yl)propanoic acid] | – |
| 0.1 to 1 | CCCC[C@@H](CCc1nn[nH]n1)Nc1nc(N)nc(C)c1Cc1ccccc1OC [Compound 36, (S)—N^4-(1-(2H-tetrazol-5-yl)heptan-3-yl)-S-(2-methoxybenzyl)-6-methylpyrimidine-2,4-diamine] | – |
| 0.1 to 1 | CCCCNc1nc(N)nc(CCc2nn[nH]n2)c1Cc1ccccc1OC [Compound 37, 6-(2-(2H-tetrazol-5-yl)ethyl)-N^4-butyl-5-(2-methoxybenzyl)pyrimidine-2,4-diamine] | – |
| < 0.1 | CCCC[C@@H](CCSC)Nc1nc(N)nc(CCC(=O)O)c1Cc1ccccc1OC [Compound 38, (S)-3-(2-amino-5-(2-methoxybenzyl)-6-((1-(methylthio)heptan-3-yl)amino)pyrimidin-4-yl)propanoic acid] | – |
| 0.1 to 1 | CCCC(C)Nc1nc(N)nc(C)c1Cc1cc(Cc2nn[nH]n2)ccc1OC (stereo not shown) [Compound 39, 5-(5-((2H-tetrazol-5-yl)methyl)-2-methoxybenzyl)-6-methyl-N^4-(pentan-2-yl)pyrimidine-2,4-diamine] | – |
| 0.1 to 1 | CCCCNc1nc(N)nc(CCCO)c1Cc1ccccc1OC [Compound 47, 3-(2-amino-6-(butylamino)-5-(2-methoxybenzyl)pyrimidin-4-yl)propan-1-ol] | – |
| < 0.1 | CCCC[C@@H](CCSC)Nc1nc(N)nc(CCC(=O)O)c1Cc1cc(Cc2nn[nH]n2)ccc1OC [Compound 48, (S)-3-(5-(5-((2H-tetrazol-5-yl)methyl)-2-methoxybenzyl)-2-amino-6-((1-(methylthio)-heptan-3-yl)amino)pyrimidin-4-yl)propanoic acid] | – |
| 0.1 to 1 | CCCC[C@@H](CCOC)Nc1nc(N)nc(CCC(=O)O)c1Cc1cc(Cc2nn[nH]n2)ccc1OC [Compound 49, (S)-3-(5-(5-((2H-tetrazol-5-yl)methyl)-2-methoxybenzyl)-2-amino-6-((1-methoxyheptan-3-yl)amino)pyrimidin-4-yl)propanoic acid] | – |
